Experimental data taken from paper PMC9932578 (Clinical Cancer Research, 2022).

Experiments:
[1] = tested on: gene expression (Hallmark gene sets); assay: RNA-seq differential expression and GSEA in bone marrow aspirates; format: in vivo, human
[2] = 60 mg QD NHL cohort, n = 1/18

CCNC(=O)C[C@@H]1N=C(c2ccc(Cl)cc2)c2cc(OC)ccc2-n2c(C)nnc21 [molibresib]
share of differentially expressed genes downregulated (289/398) ([1]; across all 13 patients): 72.6%
differentially expressed genes shared between NRs and responders ([1]; in vivo): 61 genes
genes with significant differential expression ([1]; non-responders (NR)): 884 genes
genes with significant differential expression ([1]; responders (CR + PR)): 107 genes
DLT: thrombocytopenia [2]: 6%
